Test results as given in patent US20220220115A1, “HETEROCYCLIC COMPOUNDS AND USES THEREOF” (Nuvation Bio Inc., priority 2019, published 2022).

Tests used:
WEE1 kinase enzyme = biological target: T1, WEE1 kinase enzyme (Homo sapiens, UniProt P30291); test: WEE1 IC50 determination, LanthaScreen Terbium Labeled TR-FRET kinase assay; assay type: biochemical; settings: WEE1 enzyme 1 nM, ATP 10 μM
T1 construct: purchased Invitrogen, Life Technologies PR7373A
Procedure: IC50 values of compounds against WEE1 kinase enzyme were determined by LanthaScreen™ Terbium Labeled TR-FRET assay. Kinase assays were performed in 1× kinase buffer (#PV6135, Invitrogen, Life Technologies Grand Island, N.Y.) where total reaction volume was 10 μL in low-volume 384-well plates (#4511, Corning). Serially diluted compounds (3-fold) were incubated with WEE1 Enzyme (1 nM) (#PR7373A, Invitrogen, Life Technologies Grand Island, N.Y.) for 10 min, and a mixture of ATP (10 μM) (#A1852, Sigma, St. Louis, Mo.) and fluorescent-PolyGT substrate (200 nM) (#PV3610, Invitrogen, Life Technologies, Grand Island, N.Y.) was added and incubated in dark at room temperature for 1 h. After 1 h, 10 μL stop solution containing Terbium labeled antibody (4 nM) (#PV3529, Invitrogen, Life Technologies Grand Island, N.Y.) and EDTA (#E5134, Sigma, St. Louis, Mo.) (20 mM) in TR-FRET dilution buffer (#PV3574, Invitrogen, Life Technologies, Grand Island, N.Y.) was added. Readings were taken in a Synergy Neo Plate reader (BioTek, Winooski, Vt.) at single excitation of 340 nm and dual emission at 495 nm and 520 nm respectively.
The % activity of test samples was calculated as (Sample−Min)*100/(Max−Min). [Max: DMSO control, complete reaction with enzyme & DMSO and Min: No enzyme & DMSO]. Percent inhibition (100−% activity) was fitted to the “four-parameter logistic model” in XLfit for determination of IC50 values.

A427 cell line = test: Cytotoxicity assay in A427 cell line (resazurin); assay type: cell-based; settings: Homo sapiens, A-427, A427 cells, 72 hr incubation, inhibition of proliferation
Procedure: A427 (HTB-53; ATCC), a lung epithelial cell line, was seeded in medium (MEM, 41090101; Gibco) at a cell count of 1500 cells per 100 μL per well in a 96 well edge plate (167425; ThermoFisher). Cells were allowed to grow at 37° C. for 24 hr in 5% CO2 environment (culture conditions) in a Nuaire incubator (humidified). Serially diluted test compounds (100 μL) within the desired testing concentration ranges were added to the culture plate and the cells were further incubated in culture conditions for 72 hr. The experiment was terminated at the designated incubation time by replacing the medium with 100 μL of 1 mM of resazurin (R7017; Sigma) prepared in culture medium, and the plates were further incubated in culture conditions for 4-6 hr. Fluorescence was recorded using a multimodal plate reader (Biotek Synergy Neo) at an excitation wavelength of 535 nm and emission wavelength of 590 nm to obtain relative fluorescence units. Data were analysed as follows: the background fluorescence (blank containing only medium) value was subtracted from each reading and normalized with the vehicle control (DMSO treated cells) to obtain percent survival/proliferation. Percent survival was subtracted from 100 to get the percent inhibition of proliferation which was used to calculate IC50 values. Potency of compounds in other cell lines (such as A549, As-Pc-1, Panc 10.05, A172, U-87 MG) may be determined in an analogous manner.

[1] = tested on: phospho-CDC2 (Tyr15) in A427 cells; test: Phospho-CDC2 (Tyr15) sandwich ELISA in A427 cells; assay type: cell-based; settings: Homo sapiens, A-427, treatment for a specified time (e.g., 24 hr)
Procedure: Changes in the levels of phospho-CDCl2 following treatment of cells with test compounds were assessed by enzyme-linked immunosorbent assay (ELISA). A427 cells were plated in 6-well plates and cultured for 24 hr to approximately 80-90% confluency. Medium was replaced, and the cells were treated with the vehicle control or the test compound at several different concentrations. After incubation of treated cells in cell culture conditions for a specified time (e.g., 24 hr), cells were rinsed with ice-cold PBS and lysed in 1× cell lysis buffer containing protease inhibitors and phosphatase inhibitors. The cells were scraped from the plate with a cell scraper after a brief incubation on ice and transferred to a centrifuge tube, and then subjected to three freeze-thaw cycles in liquid nitrogen and a 37° C. water bath for further lysis. The lysates were centrifuged to pellet cell debris (using, for example, a 10 min centrifugation of 2000×g at 4° C.) and the supernatants transferred to fresh tubes on ice. The protein concentrations of the samples were estimated by the Bradford method or equivalent. The ELISA was carried out with the PathScan® Phospho-CDCl2 (Tyr15) Sandwich ELISA Kit (Cat. #7176, Cell Signaling Technology, Danvers, Mass.) according to the manufacturer's instructions.

T1 sequence (P30291 whole entry): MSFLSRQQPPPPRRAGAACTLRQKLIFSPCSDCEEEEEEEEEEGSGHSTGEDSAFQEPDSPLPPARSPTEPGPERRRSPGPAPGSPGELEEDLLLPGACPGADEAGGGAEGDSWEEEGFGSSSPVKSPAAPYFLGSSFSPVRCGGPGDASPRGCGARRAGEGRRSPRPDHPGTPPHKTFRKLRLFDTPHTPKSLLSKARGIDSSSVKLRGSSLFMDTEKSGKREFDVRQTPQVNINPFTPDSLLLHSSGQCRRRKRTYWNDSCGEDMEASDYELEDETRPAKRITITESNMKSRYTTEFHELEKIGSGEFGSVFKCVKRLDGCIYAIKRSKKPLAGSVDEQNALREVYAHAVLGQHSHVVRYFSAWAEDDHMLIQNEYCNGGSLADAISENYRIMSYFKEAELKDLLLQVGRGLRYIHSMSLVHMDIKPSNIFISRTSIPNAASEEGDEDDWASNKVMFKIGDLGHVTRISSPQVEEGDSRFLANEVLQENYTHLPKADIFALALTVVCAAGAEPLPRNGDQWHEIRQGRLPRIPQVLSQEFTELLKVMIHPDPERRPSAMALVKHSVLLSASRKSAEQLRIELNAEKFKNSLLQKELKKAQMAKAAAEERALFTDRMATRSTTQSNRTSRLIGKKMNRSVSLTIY

IC50 (WEE1 kinase enzyme)	IC50 [1]	Compound	IC50 (A427 cell line)
3 nM		CC(C)(C)c1csc(-n2c3nc(Nc4ccc5c(c4)CNCC5)ncc3c(=O)n2CC(F)(F)F)n1 [Compound No. 1.12, 1-(4-(tert-butyl)thiazol-2-yl)-6-((1,2,3,4-tetrahydroisoquinolin-7-yl)amino)-2-(2,2,2-trifluoroethyl)-1,2-dihydro-3H-pyrazolo[3,4-d]pyrimidin-3-one]	2370 nM
18 nM		CC(C)(C)c1csc(-n2c3nc(Nc4ccc5c(c4)CCNC5)ncc3c(=O)n2C2CC2)n1 [Compound No. 1.5, 1-(4-(tert-butyl)thiazol-2-yl)-2-cyclopropyl-6-((1,2,3,4-tetrahydroisoquinolin-6-yl)amino)-1,2-dihydro-3H-pyrazolo[3,4-d]pyrimidin-3-one]	1270 nM
10 nM		CC(C)(C#N)c1cccc(-n2c3nc(Nc4ccc5c(c4)CNCC5)ncc3c(=O)n2CC(F)(F)F)n1 [Compound No. 1.32, 2-methyl-2-(6-(3-oxo-6-(1,2,3,4-tetrahydroisoquinolin-7-ylamino)-2-(2,2,2-trifluoroethyl)-2,3-dihydro-1H-pyrazolo[3,4-d]pyrimidin-1-yl)pyridin-2-yl)propanenitrile]	223 nM
6 nM	1120 nM	CC(C)(C)c1csc(-n2c3nc(Nc4ccc5c(c4)CNCC5)ncc3c(=O)n2C2CC2)n1 [Compound No. 1.6, 1-(4-(tert-butyl)thiazol-2-yl)-2-cyclopropyl-6-((1,2,3,4-tetrahydroisoquinolin-7-yl)amino)-1,2-dihydro-3H-pyrazolo[3,4-d]pyrimidin-3-one]	1140 nM
9 nM		CC(C)(CF)c1cccc(-n2c3nc(Nc4ccc5c(c4)CCNC5(C)C)ncc3c(=O)n2C2CC2)n1 [Compound No. 1.79, 2-cyclopropyl-6-((1,1-dimethyl-1,2,3,4-tetrahydroisoquinolin-6-yl)amino)-1-(6-(1-fluoro-2-methylpropan-2-yl)pyridin-2-yl)-1,2-dihydro-3H-pyrazolo[3,4-d]pyrimidin-3-one]	970 nM
5 nM		CC(C)(C#N)c1cccc(-n2c3nc(Nc4ccc5c(c4)CCNC5(C)C)ncc3c(=O)n2CC(F)(F)F)n1 [Compound No. 1.33, 2-(6-(6-(1,1-dimethyl-1,2,3,4-tetrahydroisoquinolin-6-ylamino)-3-oxo-2-(2,2,2-trifluoroethyl)-2,3-dihydro-1H-pyrazolo[3,4-d]pyrimidin-1-yl)pyridin-2-yl)-2-methylpropanenitrile]	513 nM
4 nM		CCn1c(=O)c2cnc(Nc3ccc4c(c3)CNCC4)nc2n1-c1nc(C(C)(C)C)cs1 [Compound No. 1.8, 1-(4-(tert-butyl)thiazol-2-yl)-2-ethyl-6-((1,2,3,4-tetrahydroisoquinolin-7-yl)amino)-1,2-dihydro-3H-pyrazolo[3,4-d]pyrimidin-3-one]	993 nM
8 nM		CC(C)n1c(=O)c2cnc(Nc3ccc4c(c3)CCNC4)nc2n1-c1csc(N2CCOCC2)n1 [Compound No. 1.3, 2-isopropyl-1-(2-morpholinothiazol-4-yl)-6-((1,2,3,4-tetrahydroisoquinolin-6-yl)amino)-1,2-dihydro-3H-pyrazolo[3,4-d]pyrimidin-3-one]	> 30000 nM
3 nM		CCn1c(=O)c2cnc(Nc3ccc4c(c3)CCNC4)nc2n1-c1cccc(C(C)(C)C#N)n1 [Compound No. 1.4, 2-(6-(2-ethyl-3-oxo-6-((1,2,3,4-tetrahydroisoquinolin-6-yl)amino)-2,3-dihydro-1H-pyrazolo[3,4-d]pyrimidin-1-yl)pyridin-2-yl)-2-methylpropanenitrile]	320 nM
7 nM		CCn1c(=O)c2cnc(Nc3ccc4c(c3)CCNC4)nc2n1-c1nc(C(C)(C)C)cs1 [Compound No. 1.10, 1-(4-(tert-butyl)thiazol-2-yl)-2-ethyl-6-((1,2,3,4-tetrahydroisoquinolin-6-yl)amino)-1,2-dihydro-3H-pyrazolo[3,4-d]pyrimidin-3-one]	1490 nM
4 nM	57 nM	CC(C)n1c(=O)c2cnc(Nc3ccc4c(c3)CNCC4)nc2n1-c1cccc(C2(CO)CC2)n1 [1.224, 1-(6-(1-(hydroxymethyl)cyclopropyl)pyridin-2-yl)-2-isopropyl-6-((1,2,3,4-tetrahydroisoquinolin-7-yl)amino)-1,2-dihydro-3H-pyrazolo[3,4-d]pyrimidin-3-one]	243 nM
4 nM		CC(C)n1c(=O)c2cnc(Nc3ccc4c(c3)CCNC4)nc2n1-c1nc(C(C)(C)C)cs1 [Compound No. 1.1, 1-(4-(tert-butyl)thiazol-2-yl)-2-isopropyl-6-((1,2,3,4-tetrahydroisoquinolin-6-yl)amino)-1,2-dihydro-3H-pyrazolo[3,4-d]pyrimidin-3-one]	530 nM
< 0.2 nM		CC(C)n1c(=O)c2cnc(Nc3ccc4c(c3)CNCC4)nc2n1-c1nc(C(C)(C)C)cs1 [Compound No. 1.2, 1-(4-(tert-butyl)thiazol-2-yl)-2-isopropyl-6-((1,2,3,4-tetrahydroisoquinolin-7-yl)amino)-1,2-dihydro-3H-pyrazolo[3,4-d]pyrimidin-3-one]	585 nM
19 nM		CC(C)(C)c1csc(-n2c3nc(Nc4ccc5c(c4)CCNC5)ncc3c(=O)n2CC(F)(F)F)n1 [Compound No. 1.11, 1-(4-(tert-butyl)thiazol-2-yl)-6-((1,2,3,4-tetrahydroisoquinolin-6-yl)amino)-2-(2,2,2-trifluoroethyl)-1,2-dihydro-3H-pyrazolo[3,4-d]pyrimidin-3-one]	1580 nM
1 nM		O=c1c2cnc(Nc3ccc4c(c3)CCNC4)nc2n(-c2cccc(C3(CO)CC3)n2)n1CC(F)(F)F [1.225, 1-(6-(1-(hydroxymethyl)cyclopropyl)pyridin-2-yl)-6-(1,2,3,4-tetrahydroisoquinolin-6-ylamino)-2-(2,2,2-trifluoroethyl)-1H-pyrazolo[3,4-d]pyrimidin-3(2H)-one]	375 nM
7 nM		CCn1c(=O)c2cnc(Nc3ccc4c(c3)CNCC4)nc2n1-c1cccc(C(C)(C)C#N)n1 [Compound No. 1.223, 2-(6-(2-ethyl-3-oxo-6-(1,2,3,4-tetrahydroisoquinolin-7-ylamino)-2,3-dihydro-1H-pyrazolo[3,4-d]pyrimidin-1-yl)pyridin-2-yl)-2-methylpropanenitrile]	102 nM
57 nM		CC(C)n1c(=O)c2cnc(Nc3ccc4c(c3)CNCC4)nc2n1-c1csc(N2CCOCC2)n1 [Compound No. 1.7, 2-isopropyl-1-(2-morpholinothiazol-4-yl)-6-((1,2,3,4-tetrahydroisoquinolin-7-yl)amino)-1,2-dihydro-3H-pyrazolo[3,4-d]pyrimidin-3-one]	> 30000 nM
